US20160339026A1, “TOPICAL COMPOSITIONS COMPRISING MODULATORS OF TRPM8” (Senomyx, Inc., priority 2015, published 2016)
Like-named read-outs stand apart in the source and are kept apart here.

Legend:
[1] = Sensory study of topically applied Compound 101; type: in vivo, human
Description: The response of subjects to topically applied Compound 101 was assessed. Subjects were exposed to a solid formulation of Compound 101 in small quantities. […] In another assessment, subjects were exposed to a dilute airborne microparticulate Compound 101.

hTRPM8 [2] = target: T1, hTRPM8 (Homo sapiens, UniProt Q7Z2W7); settings: Table 1.8; according to WO2011/061330 A2 E Table C 3-14; cited from earlier work
T1 construct: expressed in transfected cells
T1 sequence (Q7Z2W7 whole entry): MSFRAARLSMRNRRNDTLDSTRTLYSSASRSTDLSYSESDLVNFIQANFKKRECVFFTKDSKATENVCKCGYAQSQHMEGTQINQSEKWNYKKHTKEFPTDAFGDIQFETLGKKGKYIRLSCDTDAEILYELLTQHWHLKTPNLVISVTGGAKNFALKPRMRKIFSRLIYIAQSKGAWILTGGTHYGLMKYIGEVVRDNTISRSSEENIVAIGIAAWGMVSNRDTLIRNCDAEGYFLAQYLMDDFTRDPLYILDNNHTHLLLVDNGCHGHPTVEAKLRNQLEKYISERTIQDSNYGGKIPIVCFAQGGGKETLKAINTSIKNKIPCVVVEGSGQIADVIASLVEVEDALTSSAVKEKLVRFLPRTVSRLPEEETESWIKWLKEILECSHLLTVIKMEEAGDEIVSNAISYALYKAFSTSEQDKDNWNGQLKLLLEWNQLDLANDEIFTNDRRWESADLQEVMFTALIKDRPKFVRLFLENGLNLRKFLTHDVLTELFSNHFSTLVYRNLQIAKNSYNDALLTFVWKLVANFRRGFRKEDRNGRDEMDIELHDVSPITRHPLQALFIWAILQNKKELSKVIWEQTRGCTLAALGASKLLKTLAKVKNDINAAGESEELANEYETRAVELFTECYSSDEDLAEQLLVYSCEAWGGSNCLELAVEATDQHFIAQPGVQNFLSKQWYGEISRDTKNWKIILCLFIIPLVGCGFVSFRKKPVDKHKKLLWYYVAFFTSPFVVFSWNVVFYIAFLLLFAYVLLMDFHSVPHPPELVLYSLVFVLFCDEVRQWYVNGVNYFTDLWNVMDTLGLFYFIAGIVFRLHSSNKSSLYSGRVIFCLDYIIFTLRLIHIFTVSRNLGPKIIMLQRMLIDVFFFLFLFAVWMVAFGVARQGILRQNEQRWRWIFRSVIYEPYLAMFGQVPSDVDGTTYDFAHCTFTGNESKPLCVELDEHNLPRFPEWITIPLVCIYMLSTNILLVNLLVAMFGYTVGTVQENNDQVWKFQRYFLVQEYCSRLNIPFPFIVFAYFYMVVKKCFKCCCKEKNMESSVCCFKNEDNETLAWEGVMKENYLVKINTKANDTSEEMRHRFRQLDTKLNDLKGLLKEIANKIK

hTRPM8 [3] = target: T1, hTRPM8; assay: Cell line stably expressing hTRPM8, agonist assay, compounds of Formula (I); type: cell-based; settings: Table 1.7
From the text: A mammalian cell line derivative which stably expresses hTRPM8 was used in biological assays in association with testing the present compounds with cool-tasting or -feeling properties (Servant et al. US 2007/0259354 A1 and references cited therein). […] The present compounds have shown strong activity as agonists of hTRPM8. Assay results for compounds are illustrated in Table 1.1 below. Specifically, the Examples listed in Table 1.1, i.e., Compounds A1 to Compounds U10 are the specific compounds above that fall within Formula (I).

Compound | EC50 (hTRPM8 [3]) | EC50 Ratio (WS-3) (hTRPM8 [3]) | further results
Cc1ccc(OCC(=O)N(Cc2cccs2)c2ccn[nH]2)cc1 [Compound 101] | – | – | Sensation reported by subjects ([1]; exposure to a solid formulation in small quantities): all subjects reported a “tingling” and “cooling” sensation; Sensation reported by subjects ([1]; exposure to dilute airborne microparticulate compound): exhibited a “cooling smell” and induced “tingling sensation” on the skin
CCN(Cc1ccccc1)C(=O)C=Cc1ccc2c(c1)OCO2 | – | – | EC50 (hTRPM8 [2]): 1.5 µM
O=C(COc1ccc(Br)cc1)N(Cc1ccccc1)c1ccccn1 [drawing 56 R=4-Br R1=2-Pyridyl Ar=Phenyl] | 15.6 µM | 0.2 | –

The next lines start with results.

EC50 (hTRPM8 [3]) | EC50 Ratio (WS-3) (hTRPM8 [3]) | Compound | further results
4.72 µM | 0.6 | Cc1ccc(OCC(=O)N(Cc2ccccc2)c2ccccn2)cc1 [drawing 56 R=4-Me R1=2-Pyridyl Ar=Phenyl] | –
> 100 µM | – | Cc1ccc(OCC(=O)N(C)Cc2ccccc2)cc1 [drawing 56 R=4-Me R1=Methyl Ar=Phenyl] | –
0.776 µM | 4.2 | CCN(Cc1ccccc1)C(=O)COc1ccc(C)cc1 [drawing 56 R=4-Me R1=Ethyl Ar=Phenyl] | –
9.21 µM | 0.5 | CCN(Cc1ccccc1)C(=O)COc1ccccc1 [drawing 56 R=H R1=Ethyl Ar=Phenyl] | –
